In ChEMBL document CHEMBL3885881, “DrugMatrix”:

Organism: Rattus norvegicus
Experiment: DrugMatrix - Regimen: Daily Repeat
Format: toxicity, organism-based, Sprague-Dawley
Parameters: regimen Daily Repeat, gender Male, age 6-8 weeks
Details: in vivo, po, 0 mg/kg, route oral GAVAGE, dose level Control, vehicle .5 % CMC; for ABSOLUTE BASOPHIL / ABSOLUTE EOSINOPHIL / ABSOLUTE LYMPHOCYTE / ABSOLUTE MONOCYTE / ABSOLUTE SEGMENTED NEUTROPHIL / BASOPHIL / EOSINOPHIL / ERYTHROCYTE COUNT / HEMATOCRIT / HEMOGLOBIN / LEUKOCYTE COUNT / LYMPHOCYTE / MEAN CORPUSCULAR HEMOGLOBIN / MEAN CORPUSCULAR HEMOGLOBIN CONCENTRATION / MEAN CORPUSCULAR VOLUME / MONOCYTE / NEUTROPHIL / NUCLEATED RED BLOOD CELLS / PLATELET COUNT: tissue Blood; for ALANINE AMINOTRANSFERASE / ALBUMIN / ALKALINE PHOSPHATASE / ASPARTATE AMINOTRANSFERASE / BLOOD UREA NITROGEN / CARBON DIOXIDE / CHLORIDE / CHOLESTEROL / CREATININE / GLUCOSE / LACTATE DEHYDROGENASE / LIPASE / PHOSPHORUS / POTASSIUM / SODIUM / TOTAL BILIRUBIN / TOTAL PROTEIN / URIC ACID: tissue Plasma

COc1ccccc1[N+](=O)[O-] [2-NITROANISOLE]
ABSOLUTE BASOPHIL (72 h, time 3 day): 0 CELLS/uL
ABSOLUTE EOSINOPHIL (72 h, time 3 day): 279.83 CELLS/uL
ABSOLUTE LYMPHOCYTE (72 h, time 3 day): 13152.5 CELLS/uL
ABSOLUTE MONOCYTE (72 h, time 3 day): 1013.83 CELLS/uL
ABSOLUTE SEGMENTED NEUTROPHIL (72 h, time 3 day): 2420.5 CELLS/uL
BASOPHIL (72 h, time 3 day): 0%
EOSINOPHIL (72 h, time 3 day): 1.67%
ERYTHROCYTE COUNT (72 h, time 3 day): 5.26 x10E6/uL
HEMATOCRIT (72 h, time 3 day): 32.22%
HEMOGLOBIN (72 h, time 3 day): 12.02 G/DL
LEUKOCYTE COUNT (72 h, time 3 day): 16.87 x10E3/uL
LYMPHOCYTE (72 h, time 3 day): 77.83%
MEAN CORPUSCULAR HEMOGLOBIN (72 h, time 3 day): 22.93 pg
MEAN CORPUSCULAR HEMOGLOBIN CONCENTRATION (72 h, time 3 day): 37.32 G/DL
MEAN CORPUSCULAR VOLUME (72 h, time 3 day): 61.4 fL
MONOCYTE (72 h, time 3 day): 6%
NEUTROPHIL (72 h, time 3 day): 14.5%
NUCLEATED RED BLOOD CELLS (72 h, time 3 day): 0 /100WBC
PLATELET COUNT (72 h, time 3 day): 1122.17 x10E3/uL
ALANINE AMINOTRANSFERASE (72 h, time 3 day): 55.67 u/L
ALBUMIN (72 h, time 3 day): 4.35 G/DL
ALKALINE PHOSPHATASE (72 h, time 3 day): 362.67 u/L
ASPARTATE AMINOTRANSFERASE (72 h, time 3 day): 96 u/L
BLOOD UREA NITROGEN (72 h, time 3 day): 18 mg/dL
CARBON DIOXIDE (72 h, time 3 day): 27.5 mmol/L
CHLORIDE (72 h, time 3 day): 100.17 MEQ/L
CHOLESTEROL (72 h, time 3 day): 74.5 mg/dL
CREATININE (72 h, time 3 day): 0.17 mg/dL
GLUCOSE (72 h, time 3 day): 141.67 mg/dL
LACTATE DEHYDROGENASE (72 h, time 3 day): 682.5 u/L
LIPASE (72 h, time 3 day): 10 u/L
PHOSPHORUS (72 h, time 3 day): 11.5 mg/dL
POTASSIUM (72 h, time 3 day): 6.41 MEQ/L
SODIUM (72 h, time 3 day): 141.2 MEQ/L
TOTAL BILIRUBIN (72 h, time 3 day): 0.18 mg/dL
TOTAL PROTEIN (72 h, time 3 day): 5.88 G/DL
URIC ACID (72 h, time 3 day): 1.4 mg/dL
ABSOLUTE BASOPHIL (120 h, time 5 day): 0 CELLS/uL
ABSOLUTE EOSINOPHIL (120 h, time 5 day): 18.5 CELLS/uL
ABSOLUTE LYMPHOCYTE (120 h, time 5 day): 8146.83 CELLS/uL
ABSOLUTE MONOCYTE (120 h, time 5 day): 204.83 CELLS/uL
ABSOLUTE SEGMENTED NEUTROPHIL (120 h, time 5 day): 1329.83 CELLS/uL
BASOPHIL (120 h, time 5 day): 0%
EOSINOPHIL (120 h, time 5 day): 0.17%
ERYTHROCYTE COUNT (120 h, time 5 day): 5.37 x10E6/uL
HEMATOCRIT (120 h, time 5 day): 33.17%
HEMOGLOBIN (120 h, time 5 day): 12.07 G/DL
LEUKOCYTE COUNT (120 h, time 5 day): 9.7 x10E3/uL
LYMPHOCYTE (120 h, time 5 day): 85.33%
MEAN CORPUSCULAR HEMOGLOBIN (120 h, time 5 day): 22.52 pg
MEAN CORPUSCULAR HEMOGLOBIN CONCENTRATION (120 h, time 5 day): 36.42 G/DL
MEAN CORPUSCULAR VOLUME (120 h, time 5 day): 61.78 fL
MONOCYTE (120 h, time 5 day): 1.83%
NEUTROPHIL (120 h, time 5 day): 12.67%
NUCLEATED RED BLOOD CELLS (120 h, time 5 day): 0 /100WBC
PLATELET COUNT (120 h, time 5 day): 907.5 x10E3/uL
ALANINE AMINOTRANSFERASE (120 h, time 5 day): 58.5 u/L
ALBUMIN (120 h, time 5 day): 4.4 G/DL
ALKALINE PHOSPHATASE (120 h, time 5 day): 377.67 u/L
ASPARTATE AMINOTRANSFERASE (120 h, time 5 day): 140.33 u/L
BLOOD UREA NITROGEN (120 h, time 5 day): 15.33 mg/dL
CARBON DIOXIDE (120 h, time 5 day): 32.17 mmol/L
CHLORIDE (120 h, time 5 day): 100 MEQ/L
CHOLESTEROL (120 h, time 5 day): 71.83 mg/dL
CREATININE (120 h, time 5 day): 0.18 mg/dL
GLUCOSE (120 h, time 5 day): 185 mg/dL
LACTATE DEHYDROGENASE (120 h, time 5 day): 241.5 u/L
LIPASE (120 h, time 5 day): 9.5 u/L
PHOSPHORUS (120 h, time 5 day): 13.02 mg/dL
POTASSIUM (120 h, time 5 day): 6.45 MEQ/L
SODIUM (120 h, time 5 day): 143.45 MEQ/L
TOTAL BILIRUBIN (120 h, time 5 day): 0.22 mg/dL
TOTAL PROTEIN (120 h, time 5 day): 6.1 G/DL
URIC ACID (120 h, time 5 day): 1 mg/dL
ABSOLUTE BASOPHIL ([…], time 14 day): 0 CELLS/uL
ABSOLUTE EOSINOPHIL ([…], time 14 day): 117.17 CELLS/uL
ABSOLUTE LYMPHOCYTE ([…], time 14 day): 13562 CELLS/uL
ABSOLUTE MONOCYTE ([…], time 14 day): 534.83 CELLS/uL
ABSOLUTE SEGMENTED NEUTROPHIL ([…], time 14 day): 2486 CELLS/uL
BASOPHIL ([…], time 14 day): 0%
EOSINOPHIL ([…], time 14 day): 0.83%
ERYTHROCYTE COUNT ([…], time 14 day): 6.14 x10E6/uL
HEMATOCRIT ([…], time 14 day): 36.87%
HEMOGLOBIN ([…], time 14 day): 13.87 G/DL
LEUKOCYTE COUNT ([…], time 14 day): 16.7 x10E3/uL
LYMPHOCYTE ([…], time 14 day): 81%
MEAN CORPUSCULAR HEMOGLOBIN ([…], time 14 day): 22.63 pg
MEAN CORPUSCULAR HEMOGLOBIN CONCENTRATION ([…], time 14 day): 37.62 G/DL
MEAN CORPUSCULAR VOLUME ([…], time 14 day): 60.15 fL
MONOCYTE ([…], time 14 day): 3.17%
NEUTROPHIL ([…], time 14 day): 15%
NUCLEATED RED BLOOD CELLS ([…], time 14 day): 0 /100WBC
PLATELET COUNT ([…], time 14 day): 974.83 x10E3/uL
ALANINE AMINOTRANSFERASE ([…], time 14 day): 52.33 u/L
ALBUMIN ([…], time 14 day): 4.48 G/DL
ALKALINE PHOSPHATASE ([…], time 14 day): 346.17 u/L
ASPARTATE AMINOTRANSFERASE ([…], time 14 day): 81 u/L
BLOOD UREA NITROGEN ([…], time 14 day): 15.67 mg/dL
CARBON DIOXIDE ([…], time 14 day): 34.33 mmol/L
CHLORIDE ([…], time 14 day): 100.17 MEQ/L
CHOLESTEROL ([…], time 14 day): 70.83 mg/dL
CREATININE ([…], time 14 day): 0.22 mg/dL
GLUCOSE ([…], time 14 day): 141.17 mg/dL
LACTATE DEHYDROGENASE ([…], time 14 day): 121.33 u/L
LIPASE ([…], time 14 day): 8.33 u/L
PHOSPHORUS ([…], time 14 day): 9.97 mg/dL
POTASSIUM ([…], time 14 day): 6.4 MEQ/L
SODIUM ([…], time 14 day): 143.72 MEQ/L
TOTAL BILIRUBIN ([…], time 14 day): 0.22 mg/dL
TOTAL PROTEIN ([…], time 14 day): 6.45 G/DL
URIC ACID ([…], time 14 day): 1.25 mg/dL
